{
  "source": "paper PMC4764943",
  "about": "“Inhibitory effect of traditional oriental medicine-derived monoamine oxidase B inhibitor on radioresistance of non-small cell lung cancer” (Scientific Reports, 2016)",
  "key": {"[1]": {"target": "T1, MAOB (monoamine oxidase B) (Homo sapiens, UniProt P27338)", "T1 construct": "recombinant human MAOB", "T1 sequence (P27338 2-520)": "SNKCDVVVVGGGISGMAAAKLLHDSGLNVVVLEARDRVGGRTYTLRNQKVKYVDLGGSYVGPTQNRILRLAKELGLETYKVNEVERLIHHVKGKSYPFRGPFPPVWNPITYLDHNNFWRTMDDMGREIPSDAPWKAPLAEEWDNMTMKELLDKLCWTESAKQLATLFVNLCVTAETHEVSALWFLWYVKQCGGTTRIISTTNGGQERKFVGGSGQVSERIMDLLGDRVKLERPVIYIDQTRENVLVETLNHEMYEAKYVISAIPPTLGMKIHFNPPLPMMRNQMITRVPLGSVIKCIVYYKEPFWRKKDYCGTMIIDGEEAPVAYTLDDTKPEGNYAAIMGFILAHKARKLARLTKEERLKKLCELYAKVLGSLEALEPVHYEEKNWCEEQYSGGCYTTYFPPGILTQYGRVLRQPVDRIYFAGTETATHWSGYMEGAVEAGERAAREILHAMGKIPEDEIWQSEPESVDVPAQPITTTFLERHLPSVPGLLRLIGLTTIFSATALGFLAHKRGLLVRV", "assay": "ITC", "format": "binding"}, "[2]": {"target": "T1, MAOB (monoamine oxidase B)", "assay": "ITC ([…] stoichiometry); also MAOB activity inhibition in vitro, IC50 […]", "format": "binding"}},
  "data": [
    {"compound": "COc1cc(C=O)ccc1O", "note": "[vanillin]", "values": [
      {"measurement": "Kd", "setting": "[1]", "value": "165 ± 9.1", "unit": "µM"}
    ]},
    {"compound": "O=C(O)[C@H](O)Cc1ccc(O)c(O)c1", "note": "[danshensu, 3-(3,4-dihydroxyphenyl)-2-hydroxy-propanoic acid]", "values": [
      {"measurement": "Kd", "setting": "[2]", "value": "16 ± 0.8", "unit": "µM"}
    ]},
    {"compound": "CNCC(O)c1ccc(O)cc1", "note": "(stereo not drawn) [synephrine]", "values": [
      {"measurement": "Kd", "setting": "[1]; read-out: Kd", "value": "183 ± 10.3", "unit": "µM"}
    ]}
  ]
}
